SMILES strings stand for the structures. Like-named read-outs stand apart in the source and are kept apart here.

The test system of one experiment is MCA205 cells. In words: (Photo-)cytotoxicity on 2D cell monolayers, resazurin assay. The conditions noted are these: for IC50: MCA205, normoxic, 4 h exposure. Type of experiment: cell-based, mouse. The protocol:
(§1) The 2D cytotoxicity and phototoxicity profiles of Os‐Pt‐Cer and controls, were evaluated in a panel of cancerous cell lines, including A2780 (ovarian carcinoma), A549 (non‐small cell lung carcinoma), and MCA205 (murine fibrosarcoma), as well as a non‐cancerous retinal pigment epithelial cell line (RPE‐1). Cells were treated with the compounds (0.003–100 µM) for 4 h, either kept in the dark or irradiated at 670 nm (13.5 J cm^− ^2) (Table S4 and Figure S22) or 740 nm (12.6 J cm^− ^2) and viability was assessed 44 h post‐treatment. To verify robustness, the incubation was extended to 72 h. […]
(§2) Human ovarian cancer (A2780) cells and mouse fibrosarcoma cells (MCA205) were cultured in RPMI media. Retinal pigment epithelium (RPE -1) cells were cultured in DMEM/F -12 medium. Lung cancer cells (A549) were cultured in F -12K medium. These cell lines were complemented with 10% of fetal bovine serum, 100 U/mL penicillin -streptomycin mixture, and maintained in a humidified atmosphere […]
(§3) (Photo-)cytotoxicity on 2D cell monolayers
(§4) The cytotoxicity of the compounds was assessed by measuring cell viability using a resazurin assay.
(§5) The cells were seeded in triplicates in 96 well plates with a density of 10 4 cells per well in 100 μL of media. After 24 h, the medium was removed, and the cells were treated with increasing concentrations (0.003 → 100 µM) of the compounds diluted in cell media , achieving a total volume of 100 μL/well.
(§6) The cells were incubated with the compound for 4 h (final incubation time 48 h) or 24 h (final incubation time 72 h). After this time, the media was removed and replaced with 100 μL of fresh medium. For the phototoxicity studies, the cells were exposed to light with an Atlas Photonics LUMOS BIO irradiation system. Each well was constantly irradiated at 670 nm (60 min, 13.50 J·cm-2) or 740 nm (60 min, 12.60 J·cm-2). During the irradiation, the temperature of the plate was maintained at 37 °C. The cells were grown in the incubator for an additional 44 or 48 h, respectively. For the determination of the dark cytotoxicity, the cells were not irradiated and after the medium exchange directly incubated for 44 h.
(§7) After this time, the medium was replaced with fresh medium containing resazurin (0.2 mg/mL). After […]
(§8) 4 h of incubation, the conversion of resazurin into resorufin was determined upon excitation at 540 nm and measurement of its emission at 590 nm using a Cytation 5 Imaging Reader from BioTek. The obtained data was analysed with the GraphPad Prism software […]
(§9) After 24 h of incubation at 37 °C, 5% CO 2, plates were read using a SpectraMaxM2 Microplate Reader ( λexc = 540 nm; λread = 590 nm). Fluorescence data were normalised, and data were fitted using GraphPad Prism Software, and IC 50 was calculated by non - linear regression. Changes in the size and shape of MCTS were monitored every 24 h using Cytation 5 Imaging Reader from BioTek, objective x4.
(§10) Intracellular distribution by confocal fluorescence microscopy
(§11) 10^4 cells/well (A2780 cells) were seeded in complete medium (RPMI) in µ -slide 8 well (Ibidi) (100 µl/well) and left for 24 h to attach to the bottom. Then, the culture medium was removed , and 100 µl of solution of the corresponding complexes (5 µM) was added. The complexes were incubated with the cells for 4 hours. Thereafter, the medium was removed and replaced by RPMI without phenol red , and Hoechst and MitoTracker Green were added at a final concentration of 1 µg/mL. They were incubated with the cells for 30 min in the dark at 37 °C. Images were collected in a sequential mode in a Leica TCS SP8 confocal microscope with a 60x oil immers ion objective, a line average of 4, and a format of […]
(§12) (MTG)→ 500 -550nm, and 488 nm (complexes)→ 680 -730 nm. The confocal pinhole was 1 Airy unit.
(§13) Images were analysed with LAS X Flim FCS software.
(§14) Intracellular distribution by ICP -MS
In general terms: Alamar Blue is a resazurin reagent that responds to reducing activity.

The test system of another experiment is A549 cells. The description is as above. Type of experiment: cell-based. The settings on record: for IC50: A549, normoxic, 4 h exposure. The method, then: as §1, §2, §3, §4, §5, §6, §7, §8, §9, §10, §11, §12, §13, §14
[1] abbreviates: dark, total 48 h incubation, read-out: IC50 Dark.
The mark [2] stands for this setting: Mus musculus, MCA-205, dark, total 48 h incubation, read-out: IC50 Dark.
The mark [3] stands for this setting: Homo sapiens, dark, total 48 h incubation, read-out: IC50 Dark.

For the molecule `O=C1[O][Pt]2([NH][C@@H]3CCCC[C@H]3[NH]2)[O]C1=O` [Oxaliplatin], the IC50 was determined as 0.8 ± 0.09 µM in the experiment with MCA205 cells (setting [1]) and 2.8 ± 0.13 µM with A549 cells (setting [1]).
For the molecule `C=Cc1c(C)c2cc3nc(c(CC(=O)O)c4[nH]c(cc5nc(cc1[nH]2)C(C)=C5CC)c(C)c4C(=O)O)[C@@H](CCC(=O)O)[C@@H]3C` [Ce6, Chlorin e6], the results for the “PI (IC50 dark/IC50 irradiation 740 nm)” value in the experiment with MCA205 cells (MCA205) and with A549 cells (A549) were ≥53 and ≥17, respectively. In addition, the IC50 is 1.88 ± 0.2 µM in the experiment with MCA205 cells (Mus musculus, MCA-205, 740 nm (60 min, 12.60 J·cm^−2), total 48 h, read-out: IC50 Irrad. 740 nm); > 100 µM with MCA205 cells (setting [2]); 5.86 ± 0.82 µM in the experiment with A549 cells (Homo sapiens, 740 nm (60 min, 12.60 J·cm^−2), total 48 h, read-out: IC50 Irrad. 740 nm); > 100 µM with A549 cells (setting [3]).
In the case of `Cc1cc(Nc2ncc(Cl)c(Nc3ccccc3S(=O)(=O)C(C)C)n2)c(OC(C)C)cc1C1CCNCC1` [Ceritinib], the IC50 in the experiment on MCA205 cells (setting [2]) turned out to be 6.97 ± 0.7 µM; in the experiment with A549 cells (setting [3]), 3.8 ± 0.09 µM.

One may read the IC50 as the concentration that inhibits the measured activity by half.

The record behind these values is PMC12668304, “A Triple Threat Against Ovarian Cancer: Os(II)‐Pt(IV)‐Ceritinib Conjugates for Photodynamic Therapy, Chemotherapy, and Immunogenic Cell Death Induction” (Angewandte Chemie (International Ed. in English), 2025).
